Test systems include KM12 colon; TK-10 renal; UO-31 renal; RPMI-8226 leukemia; NCI-H23 lung; OVCAR-3 ovarian; SW-620 colon; K-562 leukemia; COLO 205 colon; IGROV1 ovarian; SK-MEL-28 melanoma; NCI-H460 lung; CCRF-CEM leukemia; HOP-92 NSCLC; SF-295 CNS; OVCAR-8 ovarian; HL-60(TB) leukemia; MOLT-4 leukemia; SR leukemia; UACC-257 melanoma.
What all share (assay): NCI tumour cell line growth inhibition, 48 h

Each structure is given as a SMILES string.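 Five concentrations, 48 hours, 96-well plates. TGI denotes the concentration required for complete inhibition of growth.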 Bounds are passed on as bounds.

These results are taken from PubChem BioAssay (NCI).

As to `O=C(N/N=C\C(F)(F)F)c1ccncc1`, the TGI is over 100 µM with KM12 colon; over 100 µM in the experiment on TK-10 renal; over 100 µM in the experiment with UO-31 renal; over 100 µM in the experiment with RPMI-8226 leukemia; 50.6 µM in the experiment on NCI-H23 lung; over 100 µM in the experiment with OVCAR-3 ovarian. The TGI in the experiment with SW-620 colon, in the experiment on K-562 leukemia, in the experiment with COLO 205 colon, in the experiment with IGROV1 ovarian, with SK-MEL-28 melanoma and with NCI-H460 lung was over 100 µM each time. Moreover, the TGI with CCRF-CEM leukemia, in the experiment on HOP-92 NSCLC, with SF-295 CNS, in the experiment with OVCAR-8 ovarian, in the experiment with HL-60(TB) leukemia and in the experiment with MOLT-4 leukemia was over 100 µM each time. Moreover, the TGI in the experiment with SR leukemia and in the experiment with UACC-257 melanoma was over 100 µM each time.
Turning to `CN(C)CCN(C(=Nc1ccccc1)N1CCCC1)c1ccccc1`, the TGI with KM12 colon was over 100 µM; in the experiment with TK-10 renal it was over 100 µM; in the experiment on UO-31 renal, over 100 µM; in the experiment on RPMI-8226 leukemia it was 82.3 µM; in the experiment on NCI-H23 lung, over 100 µM; in the experiment with OVCAR-3 ovarian, over 100 µM. Further, the TGI in the experiment with SW-620 colon, in the experiment on K-562 leukemia, with COLO 205 colon, with IGROV1 ovarian, with SK-MEL-28 melanoma and in the experiment with NCI-H460 lung was over 100 µM in each case. Also, the TGI with CCRF-CEM leukemia, with HOP-92 NSCLC, with SF-295 CNS, with OVCAR-8 ovarian, in the experiment on HL-60(TB) leukemia and in the experiment with MOLT-4 leukemia was over 100 µM each time. Moreover, the TGI with SR leukemia and in the experiment on UACC-257 melanoma was over 100 µM each time.
On to `COC(=O)C1=C(C)N2CCOC2CC1c1ccccc1` (stereo not given), for which the TGI in the experiment with KM12 colon, with TK-10 renal, in the experiment on UO-31 renal, with RPMI-8226 leukemia, in the experiment with NCI-H23 lung and with OVCAR-3 ovarian was over 100 µM throughout. Also, the TGI with SW-620 colon, in the experiment with K-562 leukemia, in the experiment on COLO 205 colon, in the experiment with IGROV1 ovarian, in the experiment with SK-MEL-28 melanoma and with NCI-H460 lung was over 100 µM each time. The TGI in the experiment with CCRF-CEM leukemia, with HOP-92 NSCLC, in the experiment with SF-295 CNS, with OVCAR-8 ovarian, in the experiment on HL-60(TB) leukemia and in the experiment with MOLT-4 leukemia was over 100 µM in each case. Moreover, the TGI in the experiment on SR leukemia and in the experiment on UACC-257 melanoma was over 100 µM in each case.
As to `COc1cc(C(=O)Nc2cc(C(N)=O)cc(OC)c2OC)cc(NC(=O)/C=C/c2ccccc2)c1OC`, the TGI in the experiment on KM12 colon, in the experiment on TK-10 renal, with UO-31 renal, in the experiment with RPMI-8226 leukemia, with NCI-H23 lung and in the experiment with OVCAR-3 ovarian was over 100 µM each time. For the same compound, the TGI in the experiment with SW-620 colon, in the experiment on K-562 leukemia, in the experiment with COLO 205 colon, in the experiment on IGROV1 ovarian, in the experiment with SK-MEL-28 melanoma and with NCI-H460 lung was over 100 µM throughout. In addition, the TGI with CCRF-CEM leukemia, in the experiment with HOP-92 NSCLC, in the experiment on SF-295 CNS, in the experiment with OVCAR-8 ovarian, with HL-60(TB) leukemia and in the experiment with MOLT-4 leukemia was over 100 µM each time. Also, the TGI in the experiment with SR leukemia and in the experiment with UACC-257 melanoma was over 100 µM throughout.
For `COc1cc2oc(=O)ccc2cc1CC=C(C)C`, the TGI was over 100 µM in the experiment with KM12 colon; 97.5 µM in the experiment with TK-10 renal; 97.9 µM in the experiment on UO-31 renal; 61 µM in the experiment with RPMI-8226 leukemia; over 100 µM in the experiment on NCI-H23 lung; over 100 µM in the experiment on OVCAR-3 ovarian. In addition, the TGI in the experiment on SW-620 colon, with K-562 leukemia, with COLO 205 colon, in the experiment with IGROV1 ovarian, in the experiment on SK-MEL-28 melanoma and in the experiment on NCI-H460 lung was over 100 µM throughout. Besides, the TGI with CCRF-CEM leukemia is over 100 µM; in the experiment on HOP-92 NSCLC, 69 µM; in the experiment with SF-295 CNS it was over 100 µM; in the experiment with OVCAR-8 ovarian, over 100 µM; in the experiment with HL-60(TB) leukemia it was 33.1 µM; in the experiment with MOLT-4 leukemia, over 100 µM. The TGI with SR leukemia is 57.4 µM; in the experiment on UACC-257 melanoma, over 100 µM.
On to `CN1C(=O)C2C=C3CCCCC3=CC2N(C)C1=O` (stereo not given), for which the TGI with KM12 colon, in the experiment with TK-10 renal, in the experiment with UO-31 renal, in the experiment on RPMI-8226 leukemia, in the experiment with NCI-H23 lung and with OVCAR-3 ovarian was over 100 µM in each case. For the same compound, the TGI in the experiment on SW-620 colon, in the experiment on K-562 leukemia, in the experiment on COLO 205 colon, with IGROV1 ovarian, in the experiment on SK-MEL-28 melanoma and in the experiment with NCI-H460 lung was over 100 µM throughout. Besides, the TGI in the experiment on CCRF-CEM leukemia, in the experiment on HOP-92 NSCLC, in the experiment on SF-295 CNS, in the experiment on OVCAR-8 ovarian, in the experiment with HL-60(TB) leukemia and in the experiment with MOLT-4 leukemia was over 100 µM throughout. Besides, the TGI with SR leukemia and in the experiment on UACC-257 melanoma was over 100 µM each time.
